{"source": "patent US8802664B2", "about": "(Bioproject, priority 2010, dated 2014)", "note": "Structures can show the parent of a compound that is named as a salt."}
{"compound": "CN1CCC(OC(c2cccc(OCc3cccc(C(F)(F)F)c3)c2)c2nc3ccccc3s2)CC1", "note": "(stereo not drawn) (as salt: oxalate) [Example 187, 2-{(1-methylpiperidin-4-yloxy)[3-(3-trifluoromethyl-benzyloxy)phenyl]methyl}benzothiazole]", "values": [{"measurement": "melting point", "value": 80, "unit": "°C"}]}
{"compound": "CN1CCC(OC(c2cccc(OCCO)c2)c2nc3ccccc3s2)CC1", "note": "(stereo not drawn) (as salt: oxalate) [Example 244, 2-{3-[benzothiazol-2-yl(1-methylpiperidin-4-yloxy)methyl]phenoxy}ethanol]", "values": [{"measurement": "melting point", "value": 45, "unit": "°C"}]}
{"compound": "CN1CCC(OC(c2ccc3c(c2)OCO3)c2nc3ccccc3s2)CC1", "note": "(stereo not drawn) (as salt: hydrochloride) [Example 20, 2-[benzo[1,3]dioxol-5-yl(1-methylpiperidin-4-yloxy)methyl]benzothiazole]", "values": [{"measurement": "melting point", "value": 110, "unit": "°C"}]}
{"compound": "CN1CCC(OC(c2cccc(OCc3cccc(F)c3F)c2)c2nc3ccccc3s2)CC1", "note": "(stereo not drawn) (as salt: oxalate) [Example 161, 2-[[3-(2,3-difluorobenzyloxy)phenyl](1-methylpiperidin-4-yloxy)methyl]benzothiazole]", "values": [{"measurement": "melting point", "value": 98, "unit": "°C"}]}
{"compound": "CN1CCC(OC(c2nc3cc(F)ccc3[nH]2)c2cc(OC(F)(F)F)ccc2F)CC1", "note": "(stereo not drawn) (as salt: oxalate) [Example 509]", "values": [{"measurement": "melting point", "value": 70, "unit": "°C"}]}
{"compound": "CN1CCC(OC(c2cccc(OCC=CCN)c2)c2nc3ccccc3s2)CC1", "note": "(stereo not drawn) (as salt: oxalate) [Example 431, 4-{3-[benzothiazol-2-yl(1-methylpiperidin-4-yloxy)methyl]phenoxy}but-2-enylamine]", "values": [{"measurement": "melting point", "value": 117, "unit": "°C"}]}
{"compound": "CN1CCC(OC(c2cccc(OC3CC4CNCC4C3)c2)c2nc3ccccc3s2)CC1", "note": "(stereo not drawn) (as salt: oxalate) [Example 466]", "values": [{"measurement": "melting point", "value": 70, "unit": "°C"}]}
{"compound": "CN1CCC(OC(c2cccc(OCCCn3cncn3)c2)c2nc3ccccc3s2)CC1", "note": "(stereo not drawn) (as salt: oxalate) [Example 348, 2-{(1-methylpiperidin-4-yloxy)[3-(3-[1,2,4]triazol-1-yl-propoxy)phenyl]methyl}benzothiazole]", "values": [{"measurement": "melting point", "value": 60, "unit": "°C"}]}
{"compound": "CN1CCC(NC(c2cccc(OCCC3=CCC4CC3C4(C)C)c2)c2nc3ccccc3[nH]2)CC1", "note": "(stereo not drawn) (as salt: oxalate) [Example 181, ((1H-benzimidazol-2-yl)-{3-[2-(6,6-dimethyl-bicyclo[3.1.1]hept-2-en-2-yl)ethoxy]phenyl}methyl)(1-methylpiperidin-4-yl)amine]", "values": [{"measurement": "melting point", "value": 123, "unit": "°C"}]}
{"compound": "CN1CCC(OC(c2cccc(CCCCCCNC(=N)N)c2)c2nc3ccccc3s2)CC1", "note": "(stereo not drawn) (as salt: hydrochloride) [Example 363, N-(6-{3-[benzothiazol-2-yl(1-methylpiperidin-4-yloxy)methyl]phenyl}hexyl)guanidine]", "values": [{"measurement": "melting point", "value": 90, "unit": "°C"}]}
{"compound": "CCCCOc1cccc(C(NC2CCN(C)CC2)c2nc3ccccc3s2)c1", "note": "(stereo not drawn) (as salt: oxalate) [Example 91, [benzothiazol-2-yl(3-butoxyphenyl)methyl](1-methylpiperidin-4-yl)amine]", "values": [{"measurement": "melting point", "value": 176, "unit": "°C"}]}
{"compound": "Cc1cc(F)cc(C(OC2CCN(C)CC2)c2nc3ccccc3s2)c1", "note": "(stereo not drawn) (as salt: oxalate) [Example 38, 2-[(3-fluoro-5-methylphenyl)(1-methylpiperidin-4-yloxy)methyl]benzothiazole]", "values": [{"measurement": "melting point", "value": 170, "unit": "°C"}]}
{"compound": "CN1CCC(OC(c2cccc(OCCCN3CCN(C(=O)OC(C)(C)C)CC3)c2)c2nc3ccccc3[nH]2)CC1", "note": "(stereo not drawn) (as salt: oxalate) [Example 360, 4-(3-{3-[(1H-benzimidazol-2-yl)(1-methylpiperidin-4-yloxy)methyl]phenoxy}propyl)piperazine-1-carboxylic acid tert-butyl ester]", "values": [{"measurement": "melting point", "value": 140, "unit": "°C"}]}
{"compound": "CN1CCC(OC(c2cccc(C=CCCCO)c2)c2nc3ccccc3[nH]2)CC1", "note": "(stereo not drawn) (as salt: oxalate) [Example 389, 5-{3-[(1H-benzimidazol-2-yl)(1-methylpiperidin-4-yloxy)methyl]phenyl}pent-4-en-1-ol]", "values": [{"measurement": "melting point", "value": 125, "unit": "°C"}]}
{"compound": "COc1cccc(C(NC2CCN(C)CC2)c2nc3ccccc3s2)c1", "note": "(stereo not drawn) (as salt: oxalate) [Example 25, [benzothiazol-2-yl(3-methoxyphenyl)methyl](1-methylpiperidin-4-yl)amine]", "values": [{"measurement": "melting point", "value": 160, "unit": "°C"}]}
{"compound": "CN1CCC(OC(c2cccc(N3CC(O)C3)c2)c2nc3ccccc3s2)CC1", "note": "(stereo not drawn) (as salt: oxalate) [Example 403, 1-{3-[benzothiazol-2-yl(1-methylpiperidin-4-yloxy)methyl]phenyl}azetidin-3-ol]", "values": [{"measurement": "melting point", "value": 117, "unit": "°C"}]}
{"compound": "CN1CCC(OC(c2cccc(OC3CNC3)c2)c2nc3ccccc3s2)CC1", "note": "(stereo not drawn) (as salt: oxalate) [Example 402, 2-[[3-(azetidin-3-yloxy)phenyl](1-methylpiperidin-4-yloxy)methyl]benzothiazole]", "values": [{"measurement": "melting point", "value": 81, "unit": "°C"}]}
{"compound": "CN1CCC(OC(c2cccc(SCCCCCN)c2)c2nc3ccccc3[nH]2)CC1", "note": "(stereo not drawn) (as salt: oxalate) [Example 381, 5-{3-[(1H-benzimidazol-2-yl)(1-methylpiperidin-4-yloxy)methyl]phenylsulfanyl}pentylamine]", "values": [{"measurement": "melting point", "value": 140, "unit": "°C"}]}
{"compound": "COc1ccc(C(OC2CCN(C)CC2)c2nc3ccccc3s2)cc1", "note": "(stereo not drawn) (as salt: hydrochloride) [Example 14, 2-[(4-methoxyphenyl)(1-methylpiperidin-4-yloxy)methyl]benzothiazole]", "values": [{"measurement": "melting point", "value": 72, "unit": "°C"}]}
{"compound": "Cc1ccc(C(NC2CCN(C)CC2)c2nc3ccccc3s2)cc1", "note": "(stereo not drawn) (as salt: oxalate) [Example 36, (benzothiazol-2-yl-p-tolylmethyl)(1-methylpiperidin-4-yl)amine]", "values": [{"measurement": "melting point", "value": 110, "unit": "°C"}]}
{"compound": "CN1CCC(OC(c2cccc(SCCCCCCO)c2)c2nc3ccccc3s2)CC1", "note": "(stereo not drawn) (as salt: oxalate) [Example 292, 6-{3-[benzothiazol-2-yl(1-methylpiperidin-4-yloxy)methyl]phenylsulfanyl}hexan-1-ol]", "values": [{"measurement": "melting point", "value": 80, "unit": "°C"}]}
{"compound": "CN1CCC(OC(c2cccc(C#CCCCn3cccn3)c2)c2nc3ccccc3[nH]2)CC1", "note": "(stereo not drawn) (as salt: oxalate) [Example 410, 2-{(1-methylpiperidin-4-yloxy)[3-(5-pyrazol-1-yl-pent-1-ynyl)phenyl]methyl}-1H-benzimidazole]", "values": [{"measurement": "melting point", "value": 115, "unit": "°C"}]}
{"compound": "CN1CCC(OC(c2cccc(OCC=CCO)c2)c2nc3ccccc3s2)CC1", "note": "(stereo not drawn) (as salt: oxalate) [Example 422, 4-{3-[benzothiazol-2-yl(1-methylpiperidin-4-yloxy)methyl]phenoxy}but-2-en-1-ol]", "values": [{"measurement": "melting point", "value": 73, "unit": "°C"}]}
{"compound": "CN1CCC(NC(c2cccc(Oc3ccccc3)c2)c2nc3ccccc3[nH]2)CC1", "note": "(stereo not drawn) (as salt: oxalate) [Example 85, [(1H-benzimidazol-2-yl)(3-phenoxyphenyl)methyl](1-methylpiperidin-4-yl)amine]", "values": [{"measurement": "melting point", "value": 144, "unit": "°C"}]}
{"compound": "CCSc1cc(C(OC2CCN(C)CC2)c2nc3ccccc3[nH]2)ccc1C", "note": "(stereo not drawn) (as salt: oxalate) [Example 274, 2-[(3-ethylsulfanyl-4-methylphenyl)(1-methylpiperidin-4-yloxy)methyl]-1H-benzimidazole]", "values": [{"measurement": "melting point", "value": 142, "unit": "°C"}]}
{"compound": "CN1CCC(OC(c2cccc(OCCCCN3CCOCC3)c2)c2nc3ccccc3s2)CC1", "note": "(stereo not drawn) (as salt: oxalate) [Example 322, 2-{(1-methylpiperidin-4-yloxy)[3-(4-morpholin-4-yl-butoxy)phenyl]methyl}benzothiazole]", "values": [{"measurement": "melting point", "value": 61, "unit": "°C"}]}
{"compound": "CN1CCC(OC(c2cccc(N3CCC(N)C3)c2)c2nc3ccccc3s2)CC1", "note": "(stereo not drawn) (as salt: oxalate) [Example 423, 1-{3-[benzothiazol-2-yl(1-methylpiperidin-4-yloxy)methyl]phenyl}pyrrolidin-3-ylamine]", "values": [{"measurement": "melting point", "value": 145, "unit": "°C"}]}
{"compound": "CN1CCC(OC(c2cccc(OCCCCN)c2)c2nc3ccccc3[nH]2)CC1", "note": "(stereo not drawn) (as salt: oxalate) [Example 331, 4-{3-[(1H-benzimidazol-2-yl)(1-methylpiperidin-4-yloxy)methyl]phenoxy}butylamine]", "values": [{"measurement": "melting point", "value": 115, "unit": "°C"}]}
{"compound": "CN1CCC(OC(c2cccc(-n3cccn3)c2)c2nc3ccccc3s2)CC1", "note": "(stereo not drawn) (as salt: oxalate) [Example 147, 2-[(1-methylpiperidin-4-yloxy)(3-pyrazol-1-ylphenyl)methyl]benzothiazole]", "values": [{"measurement": "melting point", "value": 89, "unit": "°C"}]}
{"compound": "C=CCCCOc1cccc(C(OC2CCN(C)CC2)c2nc3ccccc3s2)c1", "note": "(stereo not drawn) (as salt: oxalate) [Example 168, 2-[(1-methylpiperidin-4-yloxy)(3-pent-4-enyloxy-phenyl)methyl]benzothiazole]", "values": [{"measurement": "melting point", "value": 75, "unit": "°C"}]}
{"compound": "CN1CCC(OC(c2cccc(OCCCn3nccn3)c2)c2nc3ccccc3s2)CC1", "note": "(stereo not drawn) (as salt: oxalate) [Example 349, 2-{(1-methylpiperidin-4-yloxy)[3-(3-[1,2,3]triazol-2-yl-propoxy)phenyl]methyl}benzothiazole]", "values": [{"measurement": "melting point", "value": 74, "unit": "°C"}]}
{"compound": "CN1CCC(OC(c2cccc(OCCF)c2)c2nc3ccccc3[nH]2)CC1", "note": "(stereo not drawn) (as salt: oxalate) [Example 476]", "values": [{"measurement": "melting point", "value": 136, "unit": "°C"}]}
{"compound": "CN1CCC(OC(c2nc3ccccc3[nH]2)c2cc(OCCF)ccc2F)CC1", "note": "(stereo not drawn) (as salt: oxalate) [Example 489]", "values": [{"measurement": "melting point", "value": 109, "unit": "°C"}]}
{"compound": "CN1CCC(OC(c2cccc(SCCCCN)c2)c2nc3cc(F)c(F)cc3[nH]2)CC1", "note": "(stereo not drawn) (as salt: oxalate) [Example 495]", "values": [{"measurement": "melting point", "value": 180, "unit": "°C"}]}
{"compound": "CN1CCC(OC(c2cccc(N3CCC(N)CC3)c2)c2nc3ccccc3s2)CC1", "note": "(stereo not drawn) (as salt: oxalate) [Example 405, 1-{3-[benzothiazol-2-yl(1-methylpiperidin-4-yloxy)methyl]phenyl}piperidin-4-ylamine]", "values": [{"measurement": "melting point", "value": 137, "unit": "°C"}]}
{"compound": "CN1CCC(OC(c2cccc(OC3CCC(N)CC3)c2)c2nc3ccccc3s2)CC1", "note": "(stereo not drawn) (as salt: oxalate) [Example 477]", "values": [{"measurement": "melting point", "value": 95, "unit": "°C"}]}
{"compound": "CN1CCC(NC(c2cccc(F)c2)c2nc3ccccc3[nH]2)CC1", "note": "(stereo not drawn) (as salt: oxalate) [Example 74, [(1H-benzimidazol-2-yl)(3-fluorophenyl)methyl](1-methylpiperidin-4-yl)amine]", "values": [{"measurement": "melting point", "value": 155, "unit": "°C"}]}
{"compound": "CN1CCC(OC(c2cccc(OCCF)c2)c2nc3ccccc3s2)CC1", "note": "(stereo not drawn) (as salt: oxalate) [Example 163, 2-[[3-(2-fluoroethoxy)phenyl](1-methylpiperidin-4-yloxy)methyl]benzothiazole]", "values": [{"measurement": "melting point", "value": 147, "unit": "°C"}]}
{"compound": "CN1CCC(OC(c2ccc3cc[nH]c3c2)c2nc3ccccc3[nH]2)CC1", "note": "(stereo not drawn) (as salt: oxalate) [Example 550, 2-[(1H-indol-6-yl)(1-methylpiperidin-4-yloxy)methyl]-1H-benzimidazole]", "values": [{"measurement": "melting point", "value": 170, "unit": "°C"}]}
